# In US20250205215A1, “NOVEL USE OF PITOLISANT FOR TREATING SEVERE FATIGUE” (BIOPROJET, priority 2022, published 2025):
# “Also recorded” adds a separate entry of the source. Structures can show the parent of a compound that is named as a salt. Where two headings read alike, the source gives them in different places.
# How the values were obtained:
# [1] = test system: patients with multiple sclerosis; conditions: cited from earlier work
# [2] = test system: patients with neurological conditions; conditions: meta-analysis, variety of neurological conditions; cited from earlier work
# healthy volunteers [3] = experiment: Critical Flicker Fusion Test (CFFT) in healthy volunteers; type: in vivo, human; conditions: for Fusion Frequency (Flicker Fusion Test), fatigue: end of the day, healthy volunteers
# Description: The flicker fusion frequency (F.F.F.) is defined as the frequency, in flickers per second, at which an interrupted light appears as a steady light. It has been established that the score made in such tests can be used as a measure of fatigue (Luczak A, et al. Ergonomics, 2005 Dec. 15; 48 (15):1770-92; Ma et al PLOS One, 2014 Feb. 5; 9 (2):e87121; Maeda et al Jpn J Radiol. 2011 August; 29 (7):483-7).
# In human healthy volunteers, fatigue can be evaluated at the end of the day, when fatigue tends to increase, using a known psychometric test, the Flicker Fusion Test as reported by Luczak A, et al. Ergonomics, 2005 Dec. 15; 48 (15):1770-92; Ma et al PLOS One, 2014 Feb. 5; 9 (2):e87121; Maeda et al Jpn J Radiol. 2011 August; 29 (7):483-7.
# In a group of 36 healthy volunteers, the change in Fusion Frequency was evaluated at several times along the day and after administration of either placebo or pitolisant monohydrochloride at increasing dosages (20, 40 or 60 mg).
# healthy volunteers [4] = experiment: Wakefulness assessed by Spectral EEG in healthy volunteers; type: in vivo, human; conditions: 40 mg
# [5] = test system: human volunteers deprived of sleep; experiment: Fusion Frequency in volunteers deprived of sleep during 24 h; type: in vivo; conditions: 30 mg once a day
# Description: Pitolisant hydrochloride was administered once a day at a dose of 30 mg in human volunteers deprived of sleep during 24 h. Fatigue evaluated in these volunteers by the Fusion Frequency was not modified by either placebo or pitolisant at this dose.
# healthy volunteers [6] = experiment: Adverse effect study at high doses in healthy volunteers; type: in vivo, human
# Description: (§1) A group of 24 healthy volunteers received placebo or pitolisant monohydrochloride mg at doses of 160, 200 or 240 mg. This last dose corresponds to 6 times the maximum dosage recommended in narcolepsy.
# Furthermore, the rare abnormalities were reported in all treatment groups.
# [7] = Blood levels of pitolisant and metabolites in healthy volunteers; type: in vivo, human; conditions: 160, 200 or 240 mg, blood samples
# Description: as §1
# histamine H3 receptors = molecular target: T1, histamine H3 receptors (Homo sapiens, UniProt Q9Y5N1); conditions: 40 mg, cited from earlier work
# T1 construct: Brain Histamine H3 Receptors Occupancy; from tissue; host or cells: living human brain (in vivo PET); value cited from Rusjan et al., Br J Pharmacol 2020
# T1 sequence (Q9Y5N1 whole entry): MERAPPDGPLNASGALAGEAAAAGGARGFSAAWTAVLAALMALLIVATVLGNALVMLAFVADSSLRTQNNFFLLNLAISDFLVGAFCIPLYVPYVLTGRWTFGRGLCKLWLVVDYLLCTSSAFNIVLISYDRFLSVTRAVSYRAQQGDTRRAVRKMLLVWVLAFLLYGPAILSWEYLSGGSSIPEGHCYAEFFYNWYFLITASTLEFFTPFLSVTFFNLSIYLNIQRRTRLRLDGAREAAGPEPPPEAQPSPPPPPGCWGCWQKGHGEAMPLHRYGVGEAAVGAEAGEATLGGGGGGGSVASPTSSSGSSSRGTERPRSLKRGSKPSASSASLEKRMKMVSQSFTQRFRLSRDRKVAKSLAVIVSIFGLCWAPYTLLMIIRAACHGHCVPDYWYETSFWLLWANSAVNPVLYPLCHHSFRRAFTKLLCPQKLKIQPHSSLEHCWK
# [8] = test system: patients with Obstructive Sleep Apnea (OSA); conditions: 20 mg od, cited from earlier work
# patients with narcolepsy = conditions: 20 to 40 mg once a day, cited from earlier work
# [9] = 160, 200 or 240 mg, healthy volunteers
compound,measurement,setting,value
"NC12CC3CC(CC(C3)C1)C2 [Amantadine, amantadine]",Adverse events versus placebo,[1],more frequent adverse events
same,Improving multiple sclerosis fatigue versus placebo,[1],not superior to placebo
COC(=O)C(c1ccccc1)C1CCCCN1 (stereo not shown) [methylphenidate],Adverse events versus placebo,[1],more frequent adverse events
same,Improving multiple sclerosis fatigue versus placebo,[1],not superior to placebo
NC(=O)C[S+]([O-])C(c1ccccc1)c1ccccc1 (stereo not shown) [modafinil],Effect on EDS,[2],generally effective
same,Effect on fatigue,[2],without clear effect
same,Adverse events versus placebo,[1],more frequent adverse events
same,Improving multiple sclerosis fatigue versus placebo,[1],not superior to placebo
Clc1ccc(CCCOCCCN2CCCCC2)cc1 [pitolisant monohydrochloride],"Fusion Frequency (Flicker Fusion Test), fatigue",healthy volunteers [3]; 60 mg orally,reversed the alteration
same,"Fusion Frequency (Flicker Fusion Test), fatigue","healthy volunteers [3]; 60 mg orally, listed as pitolisant hydrochloride",significantly improved
same,"Flicker Fusion Test, fatigue (conclusion)","healthy volunteers [3]; 30 to 40 mg treatment, conclusion over examples 1 and 2",not improved
same,"Fusion Frequency (Flicker Fusion Test), fatigue","healthy volunteers [3]; lower doses (20, 40 mg)",failed. to provide a significant change
same,Wakefulness by Spectral EEG,healthy volunteers [4],improved significantly
same,Fatigue evaluated by the Fusion Frequency,[5]; listed as Pitolisant hydrochloride,not modified
same,Number and nature of adverse events versus placebo,healthy volunteers [6]; [9],did not differ
same,Blood level of pitolisant and metabolites,[7],dose proportionality
same,Occupancy of histamine H3 receptors (mean±SD),"histamine H3 receptors; PET scan, healthy volunteers",84±7%
same,Occupancy of the brain histamine H3-receptors (in words),histamine H3 receptors,high occupancy
same,SF evaluated with the Pichot scale,"[8]; OSA, trial of Dauvilliers et al. 2020",statistically different from placebo
same,EDS in patients with OSA,[8]; two trials,reduced
same,EDS and cataplexy in patients with narcolepsy,patients with narcolepsy; listed as Pitolisant monohydrochloride,shown to improve
"Clc1ccc(CCCOCCCN2CCCCC2)cc1 [pitolisant, 3-(4-Chlorophenyl) propyl 3-piperidinopropyl ether]",Fatigue evaluated by the Fusion Frequency,[5],not improved
same,Safety and tolerability,"healthy volunteers [6]; 160 mg, 200 mg and 240 mg (doses up to 240 mg od)",without overt adverse effect; also recorded: safe and well tolerated
same,"Laboratory parameters, vital signs, physical examination and ECG parameters",healthy volunteers [6]; [9],No significant abnormalities
same,EDS and cataplexy in patients with narcolepsy,patients with narcolepsy,significant effect
